We go through 7 compounds from patent publication US11566057B2, “Long-acting co-agonists of the glucagon and GLP-1 receptors” (Merck Sharp & Dohme Corp., priority 2017, dated 2023).

Usually EC50 stands for the midpoint of the concentration-response curve.

One test addresses T1, human GLP1R (Homo sapiens, UniProt P43220).
T1 construct: expressed in transfected cells; growth medium holds Blasticidin and Hygromycin
Kind of test: cAMP activity assay at the GLP-1 receptor (GLP1R). It counts as cell-based. The method, boiled down:
(§1)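 Peptides serially diluted from DMSO (10 points) and added to frozen-stock cells bearing human GLP1R (10,000 cells/well) or GCGR (30,000 cells/well), 1 h at RT, dark. EC50 by four-parameter logistic fit of HitHunter cAMPXS luminescence, read following overnight RT incubation.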

A further test deals with T2, human GCGR (Homo sapiens, UniProt P47871).
T2 construct: expressed in transfected cells; growth medium holds Blasticidin and Hygromycin
T2 sequence (P47871 26-477): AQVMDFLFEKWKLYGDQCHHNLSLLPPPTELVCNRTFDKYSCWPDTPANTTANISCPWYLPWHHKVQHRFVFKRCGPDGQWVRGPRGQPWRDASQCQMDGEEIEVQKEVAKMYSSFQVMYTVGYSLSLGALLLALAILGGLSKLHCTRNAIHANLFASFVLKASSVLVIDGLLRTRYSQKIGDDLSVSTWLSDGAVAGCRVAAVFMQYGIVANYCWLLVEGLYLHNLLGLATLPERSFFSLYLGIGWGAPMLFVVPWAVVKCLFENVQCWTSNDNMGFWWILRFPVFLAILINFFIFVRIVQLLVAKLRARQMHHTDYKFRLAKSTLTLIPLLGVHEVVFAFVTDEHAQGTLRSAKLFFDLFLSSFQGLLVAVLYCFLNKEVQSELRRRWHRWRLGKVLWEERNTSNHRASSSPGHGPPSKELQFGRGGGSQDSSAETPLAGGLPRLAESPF
Kind of test: cAMP activity assay at the Glucagon receptor (GCGR). It counts as cell-based. To be noted: for hGCGR/hGLP1R (hTone): ratio of GCGR EC50 to GLP1R EC50. In a few lines: as §1

Setting [1] is: summary statement: EC50 at each of the glucagon and GLP-1 receptors, read-out: EC50 at the GLP-1 receptor.
Setting [2] is: cells expressing human GCGR, cAMP production, buffer with or without 20% human serum (not stated which), read-out: GCGR EC50 human.
Where [3] appears, read: summary statement: EC50 at each of the glucagon and GLP-1 receptors, read-out: EC50 at the glucagon receptor.
[4] abbreviates: cells expressing human GLP1R, cAMP production, buffer with or without 20% human serum (not stated which), read-out: GLP1R EC50 human.

Where two headings read alike, the source gives them in different places. Numbered stars: 1 amine (or outer) side, 2 acyl side, 3 side chain; on linkers, the order of the positions; unused ones are H or OH. Square brackets hold non-standard residues; d marks the D form. Side chains are listed from the residue outwards. Peptide text beside a SMILES is read from it. * marks the point of attachment. Phe(4-CH2NH2) = NCc1ccc(C[C@H](N)C(=O)O)cc1; C18 diacid = O=C(O)CCCCCCCCCCCCCCCCC(=O)*; C16 diacid = O=C(O)CCCCCCCCCCCCCCC(=O)*; γGlu = O=C(O)[C@H](CCC(=O)[*:2])N[*:1]; Met(O2) = CS(=O)(=O)CC[C@H](N)C(=O)O; αMeD = C[C@](N)(CC(=O)O)C(=O)O; αMeS = C[C@](N)(CO)C(=O)O; AEEA = NCCOCCOCC(=O)O; Aib = CC(C)(N)C(=O)O

T1 sequence (P43220 24-463): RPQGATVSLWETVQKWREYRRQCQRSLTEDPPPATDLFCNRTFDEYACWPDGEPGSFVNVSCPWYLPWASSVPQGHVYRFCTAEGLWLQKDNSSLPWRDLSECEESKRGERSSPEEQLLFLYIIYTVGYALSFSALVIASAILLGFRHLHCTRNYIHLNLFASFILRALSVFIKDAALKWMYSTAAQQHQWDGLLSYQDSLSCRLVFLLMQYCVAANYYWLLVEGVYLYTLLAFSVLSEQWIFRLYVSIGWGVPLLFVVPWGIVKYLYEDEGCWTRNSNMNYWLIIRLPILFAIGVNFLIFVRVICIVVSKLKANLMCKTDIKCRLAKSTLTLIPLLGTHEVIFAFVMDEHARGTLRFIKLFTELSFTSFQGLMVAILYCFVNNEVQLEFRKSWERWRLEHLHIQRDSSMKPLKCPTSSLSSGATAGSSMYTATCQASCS

With `CC(C)C[C@H](NC(=O)[C@H](Cc1ccc(O)cc1)NC(=O)[C@H](CCCCN)NC(=O)[C@H](CO)NC(=O)[C@H](Cc1ccc(O)cc1)NC(=O)[C@H](CC(=O)O)NC(=O)[C@H](CO)NC(=O)[C@@H](NC(=O)[C@H](Cc1ccccc1)NC(=O)[C@@H](NC(=O)CNC(=O)[C@H](CCC(N)=O)NC(=O)C(C)(C)NC(=O)[C@@H](N)Cc1c[nH]cn1)[C@@H](C)O)[C@@H](C)O)C(=O)N[C@@H](CC(=O)O)C(=O)N[C@@H](C)C(=O)N[C@@H](CCCNC(=N)N)C(=O)N[C@@H](C)C(=O)N[C@@H](C)C(=O)N[C@@H](CCCCNC(=O)COCCOCCNC(=O)CC[C@H](NC(=O)CCCCCCCCCCCCCCC(=O)O)C(=O)O)C(=O)N[C@@H](CC(=O)O)C(=O)N[C@@H](Cc1ccccc1)C(=O)N[C@H](C(=O)N[C@@H](CCC(N)=O)C(=O)N[C@@H](Cc1c[nH]c2ccccc12)C(=O)N[C@@H](CC(C)C)C(=O)N[C@@H](CCS(C)(=O)=O)C(=O)N[C@@](C)(CC(=O)O)C(=O)N[C@H](C(N)=O)[C@@H](C)O)C(C)C` [TP627] (H-H[Aib]QGTFTSDYSKYLDARAAK([AEEA-γGlu-C16 diacid])DFVQWL[Met(O2)][αMeD]T-NH2; N-terminus assumed), the values for the EC50 at human GLP1R (setting [1]), at human GCGR (setting [2]) and at human GCGR (setting [3]) were below 5 nM, 0.14 nM and below 5 nM, respectively. Further, at human GCGR, the “hGCGR/hGLP1R (hTone)” value is reported as 0.6.

With `CC(C)C[C@H](NC(=O)[C@H](Cc1ccc(O)cc1)NC(=O)[C@H](CCCCN)NC(=O)[C@H](CO)NC(=O)[C@H](Cc1ccc(O)cc1)NC(=O)[C@H](CC(=O)O)NC(=O)[C@H](CO)NC(=O)[C@@H](NC(=O)[C@H](Cc1ccccc1)NC(=O)[C@@H](NC(=O)CNC(=O)[C@H](CCC(N)=O)NC(=O)[C@](C)(CO)NC(=O)[C@@H](N)Cc1c[nH]cn1)[C@@H](C)O)[C@@H](C)O)C(=O)N[C@@H](CC(=O)O)C(=O)NC(C)(C)C(=O)N[C@@H](CCCNC(=N)N)C(=O)N[C@@H](C)C(=O)N[C@@H](C)C(=O)N[C@@H](CCC(N)=O)C(=O)N[C@@H](CCCCNC(=O)COCCOCCNC(=O)COCCOCCNC(=O)CC[C@H](NC(=O)CCCCCCCCCCCCCCC(=O)O)C(=O)O)C(=O)N[C@@H](Cc1ccccc1)C(=O)N[C@H](C(=O)N[C@@H](CCC(N)=O)C(=O)N[C@@H](Cc1c[nH]c2ccccc12)C(=O)N[C@@H](CC(C)C)C(=O)N[C@@H](CCS(C)(=O)=O)C(=O)N[C@@](C)(CC(=O)O)C(=O)N[C@H](C(N)=O)[C@@H](C)O)C(C)C` [TP619] (H-H[αMeS]QGTFTSDYSKYLD[Aib]RAAQK([AEEA-AEEA-γGlu-C16 diacid])FVQWL[Met(O2)][αMeD]T-NH2), the figures for the concentration for a half-maximal effect (EC50) on human GLP1R (setting [4]), on human GLP1R (setting [1]) and at human GCGR (setting [3]) were 0.38 nM, below 5 nM and below 5 nM, respectively. Further, the “hGCGR/hGLP1R (hTone)” value at human GCGR is reported as 0.1.

In the case of `CC(C)C[C@H](NC(=O)[C@H](Cc1ccc(O)cc1)NC(=O)[C@H](CCCCN)NC(=O)[C@H](CO)NC(=O)[C@H](Cc1ccc(O)cc1)NC(=O)[C@H](CC(=O)O)NC(=O)[C@H](CO)NC(=O)[C@@H](NC(=O)[C@H](Cc1ccccc1)NC(=O)[C@@H](NC(=O)CNC(=O)[C@H](CCC(N)=O)NC(=O)C(C)(C)NC(=O)[C@@H](N)Cc1c[nH]cn1)[C@@H](C)O)[C@@H](C)O)C(=O)N[C@@H](CC(=O)O)C(=O)N[C@@H](C)C(=O)N[C@@H](CCCNC(=N)N)C(=O)N[C@@H](C)C(=O)N[C@@H](C)C(=O)N[C@@H](Cc1ccc(CNC(=O)COCCOCCNC(=O)COCCOCCNC(=O)COCCOCCNC(=O)CC[C@H](NC(=O)CCCCCCCCCCCCCCCCC(=O)O)C(=O)O)cc1)C(=O)N[C@@H](CC(=O)O)C(=O)N[C@@H](Cc1ccccc1)C(=O)N[C@H](C(=O)N[C@@H](CCC(N)=O)C(=O)N[C@@H](Cc1c[nH]c2ccccc12)C(=O)N[C@@H](CC(C)C)C(=O)N[C@@H](CC(C)C)C(=O)N[C@@H](CC(=O)O)C(=O)N[C@H](C(N)=O)[C@@H](C)O)C(C)C` [TP678] (H-H[Aib]QGTFTSDYSKYLDARAA[Phe(4-CH2NH2)]([AEEA-AEEA-AEEA-γGlu-C18 diacid])DFVQWLLDT-NH2; N-terminus assumed), the EC50 on human GLP1R (setting [1]) is below 5 nM; at human GCGR (setting [2]) it was 0.25 nM; at human GCGR (setting [3]), below 5 nM. Also, the “hGCGR/hGLP1R (hTone)” value on human GCGR is given as 0.3.

Regarding `CC(C)C[C@H](NC(=O)[C@H](Cc1ccc(O)cc1)NC(=O)[C@H](CCCCN)NC(=O)[C@H](CO)NC(=O)[C@H](Cc1ccc(O)cc1)NC(=O)[C@H](CC(=O)O)NC(=O)[C@H](CO)NC(=O)[C@@H](NC(=O)[C@H](Cc1ccccc1)NC(=O)[C@@H](NC(=O)CNC(=O)[C@H](CCC(N)=O)NC(=O)C(C)(C)NC(=O)[C@@H](N)Cc1c[nH]cn1)[C@@H](C)O)[C@@H](C)O)C(=O)N[C@@H](CC(=O)O)C(=O)N[C@@H](C)C(=O)N[C@@H](CCCNC(=N)N)C(=O)N[C@@H](C)C(=O)N[C@@H](C)C(=O)N[C@@H](CCCCNC(=O)COCCOCCNC(=O)COCCOCCNC(=O)CC[C@H](NC(=O)CCCCCCCCCCCCCCCCC(=O)O)C(=O)O)C(=O)N[C@@H](CC(=O)O)C(=O)N[C@@H](Cc1ccccc1)C(=O)N[C@H](C(=O)N[C@@H](CCC(N)=O)C(=O)N[C@@H](Cc1c[nH]c2ccccc12)C(=O)N[C@@H](CC(C)C)C(=O)N[C@@H](CCS(C)(=O)=O)C(=O)N[C@@H](CCC(=O)O)C(=O)N[C@H](C(N)=O)[C@@H](C)O)C(C)C` [TP672] (H-H[Aib]QGTFTSDYSKYLDARAAK([AEEA-AEEA-γGlu-C18 diacid])DFVQWL[Met(O2)]ET-NH2; N-terminus assumed), the EC50 at human GLP1R (setting [1]) is below 5 nM; on human GCGR (setting [2]), 0.35 nM; at human GCGR (setting [3]) it was below 5 nM. For the same compound, the “hGCGR/hGLP1R (hTone)” value on human GCGR is 0.7.

Turning to `CC(C)C[C@H](NC(=O)[C@H](Cc1ccc(O)cc1)NC(=O)[C@H](CCCCN)NC(=O)[C@H](CO)NC(=O)[C@H](Cc1ccc(O)cc1)NC(=O)[C@H](CC(=O)O)NC(=O)[C@H](CO)NC(=O)[C@@H](NC(=O)[C@H](Cc1ccccc1)NC(=O)[C@@H](NC(=O)CNC(=O)[C@H](CCC(N)=O)NC(=O)C(C)(C)NC(=O)[C@@H](N)Cc1c[nH]cn1)[C@@H](C)O)[C@@H](C)O)C(=O)N[C@@H](CC(=O)O)C(=O)N[C@@H](C)C(=O)N[C@@H](CCCNC(=N)N)C(=O)N[C@@H](C)C(=O)N[C@@H](C)C(=O)N[C@@H](CCC(N)=O)C(=O)N[C@@H](Cc1ccc(CNC(=O)COCCOCCNC(=O)CC[C@H](NC(=O)CCCCCCCCCCCCCCCCC(=O)O)C(=O)O)cc1)C(=O)N[C@@H](Cc1ccccc1)C(=O)N[C@H](C(=O)N[C@@H](CCC(N)=O)C(=O)N[C@@H](Cc1c[nH]c2ccccc12)C(=O)N[C@@H](CC(C)C)C(=O)N[C@@H](CC(C)C)C(=O)N[C@@H](CC(=O)O)C(=O)N[C@H](C(N)=O)[C@@H](C)O)C(C)C` [TP633] (H-H[Aib]QGTFTSDYSKYLDARAAQ[Phe(4-CH2NH2)]([AEEA-γGlu-C18 diacid])FVQWLLDT-NH2; N-terminus assumed), the concentration for a half-maximal effect (EC50) was 0.19 nM at human GLP1R (setting [4]), below 5 nM at human GLP1R (setting [1]) and below 5 nM at human GCGR (setting [3]). Further, the “hGCGR/hGLP1R (hTone)” value on human GCGR was 0.7.

Consider `CC(C)C[C@H](NC(=O)[C@H](Cc1ccc(O)cc1)NC(=O)[C@H](CCCCN)NC(=O)[C@H](CO)NC(=O)[C@H](Cc1ccc(O)cc1)NC(=O)[C@H](CC(=O)O)NC(=O)[C@H](CO)NC(=O)[C@@H](NC(=O)[C@H](Cc1ccccc1)NC(=O)[C@@H](NC(=O)CNC(=O)[C@H](CCC(N)=O)NC(=O)[C@](C)(CO)NC(=O)[C@@H](N)Cc1c[nH]cn1)[C@@H](C)O)[C@@H](C)O)C(=O)N[C@@H](CC(=O)O)C(=O)N[C@@H](C)C(=O)N[C@@H](CCCNC(=N)N)C(=O)N[C@@H](C)C(=O)N[C@@H](C)C(=O)N[C@@H](CCCCNC(=O)COCCOCCNC(=O)COCCOCCNC(=O)CC[C@H](NC(=O)CCCCCCCCCCCCCCC(=O)O)C(=O)O)C(=O)N[C@@H](CC(=O)O)C(=O)N[C@@H](Cc1ccccc1)C(=O)N[C@H](C(=O)N[C@@H](CCC(N)=O)C(=O)N[C@@H](Cc1c[nH]c2ccccc12)C(=O)N[C@@H](CC(C)C)C(=O)N[C@@H](CCS(C)(=O)=O)C(=O)N[C@@](C)(CC(=O)O)C(=O)N[C@H](C(N)=O)[C@@H](C)O)C(C)C` [TP614] (H-H[αMeS]QGTFTSDYSKYLDARAAK([AEEA-AEEA-γGlu-C16 diacid])DFVQWL[Met(O2)][αMeD]T-NH2; N-terminus assumed), for which the EC50 at human GLP1R (setting [1]) is below 5 nM; on human GCGR (setting [2]) it was 0.86 nM; on human GCGR (setting [3]), below 5 nM. For the same compound, the “hGCGR/hGLP1R (hTone)” value at human GCGR was determined as 0.6.

`CC(C)C[C@H](NC(=O)[C@H](Cc1ccc(O)cc1)NC(=O)[C@H](CCCCN)NC(=O)[C@H](CO)NC(=O)[C@H](Cc1ccc(O)cc1)NC(=O)[C@H](CC(=O)O)NC(=O)[C@H](CO)NC(=O)[C@@H](NC(=O)[C@H](Cc1ccccc1)NC(=O)[C@@H](NC(=O)CNC(=O)[C@H](CCC(N)=O)NC(=O)C(C)(C)NC(=O)[C@@H](N)Cc1c[nH]cn1)[C@@H](C)O)[C@@H](C)O)C(=O)N[C@@H](CC(=O)O)C(=O)N[C@@H](C)C(=O)N[C@@H](CCCNC(=N)N)C(=O)N[C@@H](C)C(=O)N[C@@H](C)C(=O)N[C@@H](CCC(N)=O)C(=O)N[C@@H](Cc1ccc(CNC(=O)COCCOCCNC(=O)COCCOCCNC(=O)CC[C@H](NC(=O)CCCCCCCCCCCCCCCCC(=O)O)C(=O)O)cc1)C(=O)N[C@@H](Cc1ccccc1)C(=O)N[C@H](C(=O)N[C@@H](CCC(N)=O)C(=O)N[C@@H](Cc1c[nH]c2ccccc12)C(=O)N[C@@H](CC(C)C)C(=O)N[C@@H](CCS(C)(=O)=O)C(=O)N[C@@](C)(CC(=O)O)C(=O)N[C@H](C(N)=O)[C@@H](C)O)C(C)C` [TP634] (H-H[Aib]QGTFTSDYSKYLDARAAQ[Phe(4-CH2NH2)]([AEEA-AEEA-γGlu-C18 diacid])FVQWL[Met(O2)][αMeD]T-NH2): the EC50 on human GLP1R (setting [1]) and at human GCGR (setting [3]) was below 5 nM throughout. Also, the “hGCGR/hGLP1R (hTone)” value on human GCGR was determined as 1.6.
